Reference: patent US6903052B2, “Nematicidal compositions and methods” (Divergence, Inc., priority 2002, dated 2005)

Key:
M. javanica [1] = test: Nematicidal activity of fatty acid methyl ester emulsions, spectrum (Example 8); type: cell-based, Meloidogyne javanica; conditions: M. javanica 2nd stage juveniles, scored at 48 hours
Experimental: (§1) Briefly, the indicated fatty acid emulsions were added and rapidly mixed by swirling. Nematode viability was scored by visual observation and motility assays 24 hours following addition of emulsions (48 hours for plant parasitic nematodes Meloidogyne and Heterodera species). The fatty acid emulsions tested were methyl esters of nonanoic (pelargonic) acid, ricinelaidic acid, ricinoleic acid, vernolic acid, linoleic acid, and oleic acid. […] Results shown are mean % values obtained from multiple independent experiments
(§2) The Caenorhabiditis elegans were mixed stage populations. Similar effects seen on several other free-living nematode species. The Parastrongyloides trichosuri (parasite of Australian bushtail possum) were dauer-like infective 3rd stage larva. Similar effects are also seen against free-living stages. The Meloidogyne incognita and Meloidogyne javanica (root knot nematode) were 2nd stage juveniles (dauer-like infective stage). The Heterodera glycines (soybean cyst nematode) were 2nd stage juveniles (dauer-like infective stage). Finally, the Pratylenchus scribneri (corn lesion nematode) were mixed stage populations.

B. malayi = test: Nematicidal activity of tween-based emulsions against microfilarial nematodes; type: cell-based, Brugia malayi
Experimental: To each well, tween-based fatty acid emulsions were added and rapidly mixed by swirling. Nematode microfilaria viability was scored by visual observation of motility at 24 and 48 hours following addition of emulsions. The fatty acid emulsions tested were methyl esters of ricinoleic acid, vernolic acid, ricinelaidic acid, oleic acid, and control emulsions lacking fatty acids. The results of this study are presented in Table 7 as the percentage of non-motile microfilaria 24 hours after inoculation and in Table 8 as the percentage of non-motile microfilaria 48 hours after inoculation

M. javanica [2] = test: Nematicidal activity of fatty acid methyl ester emulsions against root knot nematode J2 larvae (Example 6); type: cell-based, Meloidogyne javanica; conditions: 0.1% emulsion; 48 hours incubation, counted about 24 hours after transfer to plates
Experimental: (§3) Fatty acid methyl ester emulsions were prepared following the teachings of Kim et al (U.S. Pat. No. 5,698,592). Briefly, 1 ml 1% stock solution emulsions were prepared by mixing 10 μl of fatty acid methyl ester with 20 μl of the surfactant Igepal CO 630 in a 1.5 ml eppendorf tube. After careful mixing of fatty acid and Igepal CO 630, 850 μl of ddH20 was added and mixed by gentle pipetting until a homogeneous solution was obtained. Finally, 120 μl of pure isopropanol was added and mixed by gentle pipetting. This stock solution was then used to produce various fatty acid methyl ester dilution emulsions in 24-well plate assays.
(§4) Meloidogyne incognita and javanica were prepared from tomato roots. The roots were bleached and the debris was separated from the J2 larvae and eggs by filtration followed by sucrose density gradient centrifugation. Eggs were hatched over 4 days at 15° C. and the J2 larvae were collected by passage though a filter, followed by centrifugation.
(§5) Nematodes and emulsions were incubated with shaking at room temperature for 48 hours. The contents of each well were transferred to a small spot on individual NGM plates lacking bacteria. About 24 hours after the transfer to plates, worms on and off the inoculation spot were counted as not viable or viable, respectively. Worms were considered viable if they had crawled away from the inoculation spot, or if they were moving. Worms were considered non-viable if they remained at the inoculation spot.

C. elegans [3] = test: Nematicidal activity of fatty acid methyl ester emulsions, spectrum (Example 8); type: cell-based, Caenorhabditis elegans; conditions: C. elegans mixed stage
Experimental: as §1, §2

C. elegans [4] = test: Nematicidal activity of single fatty acid methyl ester emulsions against Caenorhabditis elegans (Example 4); type: cell-based
Experimental: Mixed stage Caenorhabditis elegans were washed off plates seeded with OP50 bacteria using M9 solution. 250 μl of the M9 solution, which contained about 50 worms, was pipetted into each well of a 24-well plate.
as §3
To each well, fatty acid emulsions or control emulsions were added and rapidly mixed by swirling. Nematode viability was scored by visual observation and motility assays at various time points 24 hours following addition of emulsions or controls. The fatty acid emulsions tested were methyl esters of nonanoic (pelargonic) acid, ricinoleic acid, vernolic acid, linoleic acid, oleic acid, and control emulsions lacking fatty acids.

P. scribneri = test: Nematicidal activity of fatty acid methyl ester emulsions, spectrum (Example 8); type: cell-based, Pratylenchus scribneri; conditions: P. scribneri mixed stage
Experimental: as §1, §2

M. incognita [5] = test: Nematicidal activity of fatty acid methyl ester emulsions against root knot nematode J2 larvae (Example 6); type: cell-based, Meloidogyne incognita; conditions: 0.1% emulsion; 48 hours incubation, counted about 24 hours after transfer to plates
Experimental: as §3, §4, §5

[6] = tested on: root knot nematodes (Meloidogyne spp.); test: Nematicidal activity against root knot nematodes, summary statement; type: cell-based; conditions: concentration of 0.1%
Experimental: as §4, §5

H. glycines = test: Nematicidal activity of fatty acid methyl ester emulsions, spectrum (Example 8); type: cell-based, Heterodera glycines; conditions: H. glycines 2nd stage juveniles, scored at 48 hours
Experimental: as §1, §2

M. incognita [7] = test: as above; type: cell-based, Meloidogyne incognita; conditions: M. incognita 2nd stage juveniles, scored at 48 hours
Experimental: as §1, §2

P. trichosuri = test: as above; type: cell-based, Parastrongyloides trichosuri; conditions: P. trichosuri infective 3rd stage larva
Experimental: as §1, §2

C. elegans [8] = test: Nematicidal activity of emulsions made with Tween-20 (replacing Igepal CO 630) against C. elegans; type: cell-based, Caenorhabditis elegans; conditions: Tween-20 emulsion
Experimental: Some nematodes assayed as described in Example 9 lacked tolerance to emulsions made with the surfactant Igepal CO 630. For this reason some assays were repeated with Tween-20-based emulsions.
as §3, with “Briefly,” for “Fatty acid methyl ester emulsions were prepared following the teachings of Kim et al (U.S. Pat. No. 5,698,592). Briefly,”, “Tween-20” for “Igepal CO 630”, “Tween-20,” for “Igepal CO 630,”

tomato seedlings = test: Phytotoxicity evaluation on tomato seedlings; type: in vivo; conditions: for Phytotoxic effect on tomato seedlings: 1% emulsion
Experimental: Sterilized tomato seeds were germinated in magenta jars containing Gamborg's agar media. After two weeks of growth, seedlings were treated with 250 μl of 1% fatty acid methyl ester emulsion (nonanoic acid, ricinoleic acid, ricinelaidic acid, oleic acid, or a control emulsion lacking any fatty acid), applied directly to the stem-media interface. Tomato seedlings were scored at various times after application of emulsions.

Structure (SMILES) | % Worm Death (48 hr) (M. javanica [1]; 0.1% solution) [%] | M. javanica (% not viable) (M. javanica [2]) [%] | % Worm Death (24 hr) (C. elegans [3]; 0.001% solution) [%] | % Worm Death (24 hr) (C. elegans [3]; 0.01% solution) [%] | % Worm Death (24 hr) (C. elegans [3]; 0.1% solution) [%] | Percentage of Worm Death (C. elegans [4]; 0.003% emulsion, 1 hr) [%] | Percentage of Worm Death (C. elegans [4]; 0.003% emulsion, 6 hr) [%] | Percentage of Worm Death (C. elegans [4]; 0.003% emulsion, 24 hr) [%] | Percentage of Worm Death (C. elegans [4]; 0.1% emulsion, 1 hr) [%] | Percentage of Worm Death (C. elegans [4]; 0.1% emulsion, 6 hr) [%] | Percentage of Worm Death (C. elegans [4]; 0.1% emulsion, 24 hr) [%] | % Worm Death (24 hr) (P. scribneri; 0.01% solution) [%] | % Worm Death (24 hr) (P. scribneri; 0.1% solution) [%] | M. incognita (% not viable) (M. incognita [5]) [%] | Nematicidal activity (in words) [6] | % Worm Death (24 hr) (H. glycines; 0.01% solution) [%] | % Worm Death (24 hr) (H. glycines; 0.1% solution) [%] | % Worm Death (24 hr) (M. incognita [7]; 0.1% solution) [%] | further results
CCCCC[C@H]1O[C@H]1C/C=C\CCCCCCCC(=O)OC [Vernolic Acid (C18-methyl ester), (12,13)-epoxy-cis-9-octadecenoic acid methyl ester] | 90 | 90 | 30 | 50 | 80 | 20 | 20 | 20 | 65 | 65 | 75 | <20 | <20 | 100 | significant nematicidal activity | 20 | 30 | 98 | % Worm Death (48 hr) (M. javanica [1]; 0.01% solution): 60%; percentage of non-motile microfilaria (B. malayi; 24 hrs post-inoculation, 0.0008%): 0%; percentage of non-motile microfilaria (B. malayi; 24 hrs post-inoculation, 0.0016%): 0%; percentage of non-motile microfilaria (B. malayi; 24 hrs post-inoculation, 0.003%): 0%; percentage of non-motile microfilaria (B. malayi; 24 hrs post-inoculation, 0.005%): 66%; percentage of non-motile microfilaria (B. malayi; 24 hrs post-inoculation, 0.0067%): 100%; percentage of non-motile microfilaria (B. malayi; 24 hrs post-inoculation, 0.008%): 100%; percentage of non-motile microfilaria (B. malayi; 48 hrs post-inoculation, 0.0008%): 0%; percentage of non-motile microfilaria (B. malayi; 48 hrs post-inoculation, 0.0016%): 0%; percentage of non-motile microfilaria (B. malayi; 48 hrs post-inoculation, 0.003%): 5%; percentage of non-motile microfilaria (B. malayi; 48 hrs post-inoculation, 0.005%): 100%; percentage of non-motile microfilaria (B. malayi; 48 hrs post-inoculation, 0.0067%): 100%; percentage of non-motile microfilaria (B. malayi; 48 hrs post-inoculation, 0.008%): 100%; % Worm Death (24 hr) (H. glycines; 0.001% solution): 18%; % Worm Death (24 hr) (M. incognita [7]; 0.01% solution): 73%; % Worm Death (24 hr) (P. trichosuri; 0.01% solution): ˜90%; % Worm Death (24 hr) (P. trichosuri; 0.1% solution): ˜95%
CCCCCCCCC(=O)OC [Nonanoic (C9-methyl ester), pelargonic acid methyl ester, reference compound] | 100 | 100 | 30 | 100 | 100 | 50 | 50 | 50 | 100 | 100 | 100 | <20 | <20 | 100 | significant nematicidal activity | >95 | 100 | 100 | % Worm Death (24 hr) (C. elegans [8]; 0.001% solution): 30%; % Worm Death (24 hr) (C. elegans [8]; 0.01% solution): 100%; % Worm Death (24 hr) (C. elegans [8]; 0.1% solution): 100%; Nematicidal activity (in words) (C. elegans [4]; concentration of 0.1%): strongly nematicidal; Onset of effect on nematode movement (in words) (C. elegans [4]; emulsion, C. elegans): almost immediate cessation of nematode movement and subsequent death; Phytotoxic effect on tomato seedlings (tomato seedlings; within 18 hours of application): distinct loss of turgor pressure (wilting phenotype); Phytotoxic effect on tomato seedlings (tomato seedlings; within 24 hours): almost entirely bleached to a pale white color and had nearly totally collapsed; Visible effects on tomato seedlings (tomato seedlings; 250 μl of 1% emulsion applied to stem-media interface of two-week seedlings): showed obvious effects on the tomatoes
